How the values were obtained:
E. coli ATCC 25922 = assay: Biocidal activity in bacterial suspension (Example 17); assay type: cell-based, Escherichia coli; conditions: 15 ppm [Cl+]
Method: (§1) In the model study we investigated the bactericidal performance of small molecules 2 and 43 against three strains for each bacterium at the concentration of 15 ppm.
(§2) Tryptone Soya Agar (TSA) was used for bacterial culture. After sub-cultured from stocks, bacteria were allowed to grow at 37° C. for 18-20 hours to obtain logarithmic-phase cultures. Biocidal activity of 2 and 43 were completed as followed. To 20 mL bacterial suspension (10^6-10^7 colony forming units (CFU)/mL) in a centrifuge tube was added 30 μL it 2 or 43 solutions (0.28 M stock solution) respectively to achieve final 15 ppm [Cl^+]). Timing of the exposure to the disinfectant was started immediately with the addition of the synthetic compound 2 or 43. After the contact for 5 min, 10 min, and 20 min respectively, 1.0 mL aliquots were withdrawn and added to an equal volume of 0.02 N sodium thiosulfate in PBS (0.05 M, pH 7.0). The quenched suspension was serially diluted and 100 μL of each resulting dilutions were placed onto nutrient agar plates. The same procedure was also applied to compounds 1 and 42 as controls. After being incubated at 37° C. for 24 hours, viable bacterial colonies on the plates were counted. Bacterial reduction was reported according to the following equation.
(§3) Percentage reduction of bacteria (%)=(A−B)/A×100
(§4) Where A is the number of bacteria retrieved from controls (CFU/mL), and B is the number of bacteria retrieved from 2 or 43 (CFU/mL).

MDR-E. coli (#70094) = assay: as above; assay type: cell-based, Escherichia coli; conditions: 15 ppm [Cl+]
Method: as §1, §2, §3, §4

MDR-E. coli (#95882) = assay: as above; assay type: cell-based, Escherichia coli; conditions: 15 ppm [Cl+]
Method: as §1, §2, §3, §4

MRSA (#70527) = assay: as above; assay type: cell-based, Staphylococcus aureus; conditions: 15 ppm [Cl+]
Method: as §1, §2, §3, §4

MRSA (#77090) = assay: as above; assay type: cell-based, Staphylococcus aureus; conditions: 15 ppm [Cl+]
Method: as §1, §2, §3, §4

MRSA ATCC33592 = assay: as above; assay type: cell-based, Staphylococcus aureus; conditions: 15 ppm [Cl+]
Method: as §1, §2, §3, §4

CA-MRSA 40065 = assay: Biocidal activity in bacterial suspension (Example 18); assay type: cell-based, Staphylococcus aureus; conditions: Table 2, 15 ppm [Cl+], inoculum 1.57-1.75 × 10^6 CFU/mL
Method: Logarithmic-phase cultures of MRSA were prepared using similar way except TSA broth was used instead.
(§5) Biocidal activity of synthetic compounds was completed as followed. To 20 mL of bacterial suspension (10^5 or 10^6 cfu/mL) in a centrifuge tube was added 30 μL solution of synthetic compounds (0.282 M stock solution) to achieve a final [Cl^+] of 15 ppm. Timing of the exposure to the disinfectant was started immediately with the addition of the synthetic compound. After predetermined contact time, 1.0 mL aliquots were withdrawn and added to an equal volume of 0.02 N sodium thiosulfate in PBS (0.1 M, pH 7.4). The quenched suspension was serially diluted and 100 μL of each resulting dilution was placed onto nutrient agar plates. After being incubated at 37° C. for 24 hours, the viable bacterial colonies on the plates were counted. Bacterial reduction was reported according to:
as §3
(§6) Log reduction=Log(A/B) (4)
(§7) where A is the number of bacteria in the starting inoculum (cfu/mL), and B is the number of bacteria retrieved from synthetic compounds (cfu/mL).

P. aeruginosa 73104 = assay: as above; assay type: cell-based, Pseudomonas aeruginosa; conditions: 15 ppm [Cl+]
Method: Logarithmic-phase cultures of P. aeruginosa were prepared by initially suspending several colonies in cation-supplemented Mueller-Hinton broth (Oxoid, Nepean, Ontario, Canada) at a density equivalent to a 0.5 McFarland standard (1×10^8 cfu/mL). This suspension was then diluted 1:100 and 20 μL of the diluted suspension was further diluted in 60 mL of cation-supplemented Mueller-Hinton broth. Following overnight growth at 37° C., suspensions were diluted 1:[…] to get inoculums of approximately 1×10^6 or 1×10^5 cfu/mL.
as §5, §3, §6, §7

[1] = Table 3, contact 60 min, inoculum 2.26 × 10^5 CFU/mL
[2] = Table 3, contact 90 min, inoculum 2.26 × 10^5 CFU/mL
[3] = Table 4, contact 3 min, inoculum 2.26-2.98 × 10^5 CFU/mL
[4] = Table 4, contact 5 min, inoculum 2.26-2.98 × 10^5 CFU/mL
[5] = Table 4, contact 10 min, inoculum 2.26-2.98 × 10^5 CFU/mL
[6] = Table 4, contact 20 min, inoculum 2.26-2.98 × 10^5 CFU/mL
[7] = Table 4, contact 30 min, inoculum 2.26-2.98 × 10^5 CFU/mL
[8] = Table 4, contact 45 min, inoculum 2.26-2.98 × 10^5 CFU/mL
[9] = Table 4, contact 60 min, inoculum 2.26-2.98 × 10^5 CFU/mL

Question: With CC1(C)C(=O)N(CCC[N+](C)(C)C)C(=O)N1Cl [Compound 2] as the compound, how does the “Bacteria reduction Log10” value (E. coli ATCC 25922; contact 5 min) read?
Answer: 6.63 Log10

Question: What about the Bacteria reduction % (E. coli ATCC 25922; contact 5 min, inoculum 1.46-5.87 × 10^6 CFU/mL) of the same compound?
Answer: 100%

Question: And the Bacteria reduction % (E. coli ATCC 25922; contact 10 min)?
Answer: 100%

Question: And the “Bacteria reduction Log10” value (E. coli ATCC 25922; contact 10 min)?
Answer: 6.63 Log10

Question: What about the Bacteria reduction % (E. coli ATCC 25922; contact 20 min) of the same compound?
Answer: 100%

Question: And the “Bacteria reduction Log10” value (E. coli ATCC 25922; contact 20 min)?
Answer: 6.63 Log10

Question: And the Bacteria reduction % (MDR-E. coli (#70094); contact 5 min)?
Answer: 100%

Question: And the “Bacteria reduction Log10” value (MDR-E. coli (#70094); contact 5 min)?
Answer: 6.17 Log10

Question: And the Bacteria reduction % (MDR-E. coli (#70094); contact 10 min)?
Answer: 100%

Question: And the “Bacteria reduction Log10” value (MDR-E. coli (#70094); contact 10 min)?
Answer: 6.17 Log10

Question: And the Bacteria reduction % (MDR-E. coli (#70094); contact 20 min)?
Answer: 100%

Question: What about the “Bacteria reduction Log10” value (MDR-E. coli (#70094); contact 20 min) of the same compound?
Answer: 6.17 Log10

Question: And the Bacteria reduction % (MDR-E. coli (#95882); contact 5 min)?
Answer: 100%

Question: And the “Bacteria reduction Log10” value (MDR-E. coli (#95882); contact 5 min)?
Answer: 6.67 Log10

Question: What about the Bacteria reduction % (MDR-E. coli (#95882); contact 10 min) of the same compound?
Answer: 100%

Question: What about the “Bacteria reduction Log10” value (MDR-E. coli (#95882); contact 10 min) of the same compound?
Answer: 6.67 Log10

Question: And the Bacteria reduction % (MDR-E. coli (#95882); contact 20 min)?
Answer: 100%

Question: And the “Bacteria reduction Log10” value (MDR-E. coli (#95882); contact 20 min)?
Answer: 6.67 Log10

Question: What about the Bacteria reduction % (MRSA (#70527); contact 5 min) of the same compound?
Answer: 100%

Question: What about the “Bacteria reduction Log10” value (MRSA (#70527); contact 5 min) of the same compound?
Answer: 6.76 Log10

Question: And the Bacteria reduction % (MRSA (#70527); contact 10 min)?
Answer: 100%

Question: And the “Bacteria reduction Log10” value (MRSA (#70527); contact 10 min)?
Answer: 6.76 Log10

Question: And the Bacteria reduction % (MRSA (#70527); contact 20 min)?
Answer: 100%

Question: What about the “Bacteria reduction Log10” value (MRSA (#70527); contact 20 min) of the same compound?
Answer: 6.76 Log10

Question: And the Bacteria reduction % (MRSA (#77090); contact 5 min)?
Answer: 100%

Question: What about the “Bacteria reduction Log10” value (MRSA (#77090); contact 5 min) of the same compound?
Answer: 6.16 Log10

Question: What about the Bacteria reduction % (MRSA (#77090); contact 10 min) of the same compound?
Answer: 100%

Question: And the “Bacteria reduction Log10” value (MRSA (#77090); contact 10 min)?
Answer: 6.16 Log10

Question: What about the Bacteria reduction % (MRSA (#77090); contact 20 min) of the same compound?
Answer: 100%

Question: What about the “Bacteria reduction Log10” value (MRSA (#77090); contact 20 min) of the same compound?
Answer: 6.16 Log10

Question: What about the Bacteria reduction % (MRSA ATCC33592; contact 5 min) of the same compound?
Answer: 100%

Question: What about the “Bacteria reduction Log10” value (MRSA ATCC33592; contact 5 min) of the same compound?
Answer: 6.60 Log10

Question: And the Bacteria reduction % (MRSA ATCC33592; contact 10 min)?
Answer: 100%

Question: And the “Bacteria reduction Log10” value (MRSA ATCC33592; contact 10 min)?
Answer: 6.60 Log10

Question: What about the Bacteria reduction % (MRSA ATCC33592; contact 20 min) of the same compound?
Answer: 100%

Question: What about the “Bacteria reduction Log10” value (MRSA ATCC33592; contact 20 min) of the same compound?
Answer: 6.60 Log10

Question: And the Bacteria reduction % (CA-MRSA 40065; contact 3 min)?
Answer: 92.8%

Question: And the “Bacteria reduction Log10” value (CA-MRSA 40065; contact 3 min)?
Answer: 1.14 Log10

Question: What about the Bacteria reduction % (CA-MRSA 40065; contact 5 min) of the same compound?
Answer: 93.8%

Question: What about the “Bacteria reduction Log10” value (CA-MRSA 40065; contact 5 min) of the same compound?
Answer: 1.20 Log10

Question: What about the Bacteria reduction % (CA-MRSA 40065; contact 10 min) of the same compound?
Answer: 90.3%

Question: And the “Bacteria reduction Log10” value (CA-MRSA 40065; contact 10 min)?
Answer: 1.01 Log10

Question: What about the Bacteria reduction % (CA-MRSA 40065; contact 60 min) of the same compound?
Answer: 99.6%

Question: And the “Bacteria reduction Log10” value (CA-MRSA 40065; contact 60 min)?
Answer: 2.36 Log10

Question: What about the “Reduction of P. aeruginosa” value (P. aeruginosa 73104; 10^6 cfu/mL P. aeruginosa, within 60 min of contact) of the same compound?
Answer: cannot bring any significant reduction

Question: What about the Bacteria reduction % (P. aeruginosa 73104; Table 3, contact 3 min, inoculum 2.26 × 10^5 CFU/mL) of the same compound?
Answer: 37.6 ± 1.9%

Question: What about the Bacteria reduction % (P. aeruginosa 73104; Table 3, contact 5 min, inoculum 2.26 × 10^5 CFU/mL) of the same compound?
Answer: 26.6 ± 12.5%

Question: And the “Bacteria reduction Log10” value (P. aeruginosa 73104; Table 3, contact 10 min, inoculum 2.26 × 10^5 CFU/mL)?
Answer: 0.41 ± 0.02 Log10

Question: What about the Bacteria reduction % (P. aeruginosa 73104; [1]) of the same compound?
Answer: 100%

Question: And the “Bacteria reduction Log10” value (P. aeruginosa 73104; [1])?
Answer: 5.35 Log10

Question: And the Bacteria reduction % (P. aeruginosa 73104; [2])?
Answer: 100%

Question: What about the “Bacteria reduction Log10” value (P. aeruginosa 73104; [2]) of the same compound?
Answer: 5.35 Log10

Question: And the Bacteria reduction % (P. aeruginosa 73104; [3])?
Answer: 37.6%

Question: What about the “Bacteria reduction Log” value (P. aeruginosa 73104; [3]) of the same compound?
Answer: 0.2 Log

Question: And the Bacteria reduction % (P. aeruginosa 73104; [4])?
Answer: 26.6%

Question: What about the “Bacteria reduction Log” value (P. aeruginosa 73104; [4]) of the same compound?
Answer: 0.14 Log

Question: What about the Bacteria reduction % (P. aeruginosa 73104; [5]) of the same compound?
Answer: 61.5%

Question: What about the “Bacteria reduction Log” value (P. aeruginosa 73104; [5]) of the same compound?
Answer: 0.41 Log

Question: And the Bacteria reduction % (P. aeruginosa 73104; [6])?
Answer: 99.65%

Question: What about the “Bacteria reduction Log” value (P. aeruginosa 73104; [6]) of the same compound?
Answer: 2.46 Log

Question: What about the Bacteria reduction % (P. aeruginosa 73104; [7]) of the same compound?
Answer: 99.99%

Question: And the “Bacteria reduction Log” value (P. aeruginosa 73104; [7])?
Answer: 4.02 Log

Question: What about the Bacteria reduction % (P. aeruginosa 73104; [8]) of the same compound?
Answer: 99.99%

Question: What about the “Bacteria reduction Log” value (P. aeruginosa 73104; [8]) of the same compound?
Answer: 4.67 Log

Question: And the Bacteria reduction % (P. aeruginosa 73104; [9])?
Answer: 100%

Question: And the “Bacteria reduction Log” value (P. aeruginosa 73104; [9])?
Answer: 5.47 Log

— US20150118179A1, “BIOCIDAL COMPOUNDS AND METHODS FOR USING SAME” (UNIVERSITY OF MANITOBA, priority 2012, published 2015)
